Like-named read-outs stand apart in the source and are kept apart here.
What was measured:
V79 cells [1] = test: Clonogenicity, killing of V79 cells using photodynamic therapy (Table 3); format: cell-based, Chinese hamster
Procedure: Using the cell culture methods described above, V79 cells Chinese hamster lung fibroblasts were treated with either 0.5 or 1.0 μM of the phthalocyanines listed in Table 3. About 18 hours thereafter, the cells were irradiated with increasing doses of 675 nm broad band red light from a 500 W tungsten-halogen lamp fitted with a 600 nm high pass filter, to determine the light dosage that would kill 90% of the phthalocyanine treated cells. Where 90% of the cells were not killed, the maximum percent of cells killed were determined, (expressed as % survival) and the related light dosage recorded.

V79 cells [2] = test: Uptake of additional phthalocyanines into V79 cells (Table 2); details: for Uptake into V79 cells: 18 hours; for Uptake into V79 cells, composite value: average of all data; for Uptake (from Table 2): repeated in Table 3; for dependence of uptake on phthalocyanine concentration: V79 cells, 1-4 μM; for Uptake into V79 cells, composite value (asterisk): asterisk: listed value is for 1 μM, average would be higher
Procedure: V79 cells Chinese hamster lung fibroblasts were cultured using the cell culture methods described above. […] When the filters were dry, the phthalocyanines were extracted into ethanol and the absorption determined at the peak wavelength, usually 668 nm.

L5178Y cells = test: Induction of apoptosis (DNA fragmentation) in L5178Y-R cells (Table 6); format: cell-based, mouse; details: for induction of apoptosis: 1 μM at a fluence of 30 kJ/m^2
Procedure: Mouse lymphoma L5178y-R (hereinafter also referred to as "LY-R") cells were grown in suspension culture as described in Ramakrishnan N., Oleinick, N. L. Clay, M. E., Horng, M. F., Antunez, A. R., and Evans H. H., DNA lesions and DNA degradation in mouse lymphoma L5178Y cells after photodynamic treatment sensitized by chloroaluminum phthalocyanine. Photochem. Photobiol. 50, 373-378, 1989 and Agarwal, M. L., Clay, M. E., Harvey, E. J., Evans, H. H., Antunez, A. R., and Oleinick, N. L. Photodynamic therapy induces rapid cell death by apoptosis in L5178Y mouse lymphoma cells. Cancer Res., 51, 5993-5996, 1991.
The cells were used while in exponential growth. Stock solutions of either 0.5 or 1 mM of PcIV, PcXII, PcX, PcXVIII were prepared in dimethylformamide unless otherwise indicated and added to the 10 mL medium at a rate of 1 μL per mL. After allowing 18 hours for uptake of the phthalocyanine into the cells, the flasks containing the cultures were placed on a glass exposure tray above a 500-W tungsten-halogen lamp. The exposure tray was fitted with a 600-nm high-pass filter. Flasks were exposed to various fluences of red light (up to 30 kJ/m^2) at a fluence rate of approximately 74 W/m^2). After irradiation, the cells were collected by centrifugation.
For measurement of clonogenic cell survival, aliquots were plated in medium containing soft agar as described in Ramakrishnan N., Oleinick, N. L. Clay, M. E., Horng, M. F., Antunez, A. R., and Evans H. H., DNA lesions and DNA degradation in mouse lymphoma L5178Y cells after photodynamic treatment sensitized by chloroaluminum phthalocyanine. Photochem. Photobiol. 50, 373-378, 1989. The aliquots were plated in sufficient numbers to produce 50-200 colonies. The dishes were kept in an incubator at 37° C. in an atmosphere of 5% CO2 and 95% air for 10-14 days to allow viable cells to form colonies. Colonies were counted by eye. Controls treated with the phthalocyanine alone had plating efficiencies of ~90%. The plating efficiencies of the treated cells are normalized to the plating efficiencies of control cells in each experiment. For measurement of the induction of apoptosis, DNA was isolated from the treated and control cells 2 hours after photodynamic therapy, subjected to electrophoresis on 1.5% agarose, stained with ethidium bromide, and visualized by UV transillumination, as described in Agarwal et. al. The results are shown in Tables 4, 5 and 6 and in FIG. 3.
Cells were treated with various concentrations of the compounds listed in the table and various light fluences. DNA gels were prepared and examined for the characteristic "ladder" pattern of DNA fragments. For each Pc, the minimum total PDT dose tested (calculated as the product of the minimum phthalocyanine concentration and the minimum fluence) which produced visible DNA fragments is recorded. […] PcXVIII was also added at 0.5 and 1.0 μM.

RIF-1 tumors = test: PDT of RIF-1 implanted tumors (Table 7); format: in vivo, C3H/HeN mice; details: 5 mg/kg in phosphate buffered saline; 675 nm, 135 J/cm^2
Procedure: The relative effectiveness at reducing tumor volume of selected phthalocyanine compounds at a given dosage was compared in vivo. RIF-1, i.e., radiation-induced fibrosarcoma, tumors were implanted into the backs of C3H/HeN mice. One tumor was implanted per mouse. Each of the phthalocyanine compounds listed in Table 7 was sonicated and vortexed in corn oil to produce a suspension. When the tumors reached […] in diameter and 2-3 mm in thickness, each mouse received 1 mg/kg in 0.1 ml of the corn oil, of the phthalocyanine suspension. For comparison, select mice received a conventional photosensitizer; either 5 mg/kg of chloroaluminum phthalocyanine tetrasulfonate, herein also referred to as "AlPcTS" in phosphate buffered saline or 5 mg/kg of Photofrin®-II in 5% dextrose. Twenty-four hours after the photosensitizers were administered, the tumors were irradiated with visible radiation delivered by an argon-pumped dye laser. The mice that received a phthalocyanine photosensitizer received light having a wavelength of 675 nm and the mice that received the Photofrin® II photosensitizer received light having a wavelength of 630 nm. Each tumor received 135 J/cm^2 of radiation. Tumor size was measured every day using calipers. The initial tumor volume was 50±10 mm^3. Tumor volume was calculated according to the hemiellipsoid model by the formula: [formula] Where l is length Where W is width

[3] = Cricetulus griseus, V79, 1 μM, at 10 kJ/m^2, read-out: Maximum Effect (% survival)
[4] = Cricetulus griseus, V79, 0.5 μM, at 10 kJ/m^2, read-out: Maximum Effect (% survival)

| Molecule | Uptake into V79 cells (V79 cells [2]; 1 μM) [n Moles/10^6 cells] | Uptake into V79 cells (V79 cells [2]; 4 μM) [n Moles/10^6 cells] | Uptake into V79 cells, composite value (V79 cells [2]) [n Moles/10^6 cells/μM] | Uptake (from Table 2) (V79 cells [2]) [n Moles/10^6 cells/μM] | also measured |
| --- | --- | --- | --- | --- | --- |
| C[Si](C)(CCCCNC(=S)N[C@@H]1O[C@H](CO)[C@@H](O)[C@H](O)[C@H]1O)O[Si]1(O[Si](C)(C)CCCCNC(=S)N[C@@H]2O[C@H](CO)[C@@H](O)[C@H](O)[C@H]2O)n2c3c4ccccc4c2N=C2N=C(N=c4c5ccccc5c(n41)=NC1=NC(=N3)c3ccccc31)c1ccccc12 [Compound XI, SiPc[OSi(CH3)2 (CH2)4 NHCSNHC6 H11l O5 ]2] | 0.1 | 0.3 ± 0.1 | 0.1 | 0.1 | Cell survival at highest light dose at 1 µM (V79 cells [1]; Cricetulus griseus, V79, 1 μM, at 20 kJ/m^2, read-out: Maximum Effect (% survival)): 100%; induction of apoptosis (L5178Y cells): did not induce apoptosis |
| CC(=O)OCCC[Si](C)(C)O[Si]1(O)n2c3c4ccccc4c2N=C2N=C(N=c4c5ccccc5c(n41)=NC1=NC(=N3)c3ccccc31)c1ccccc12 (stereo not shown) [Compound XIII, HOSiPcOSi(CH3)2 (CH2)3 OCOCH3] | – | 1.7 ± 0.3 | 0.4 | 0.4 | Cell survival at highest light dose at 1 µM (V79 cells [1]; Cricetulus griseus, V79, 1 μM, at 15 kJ/m^2, read-out: Maximum Effect (% survival)): 88% |
| C[Si](C)(CCCN1CCOCC1)O[Si]1(O)n2c3c4ccccc4c2N=C2N=C(N=c4c5ccccc5c(n41)=NC1=NC(=N3)c3ccccc31)c1ccccc12 (stereo not shown) [Compound XIX, HOSiPcOSi(CH3)2 (CH2)3 NC4 H8 O] | 0.3 ± 0.1 | 2.4 ± 0.5 | – | 1.3 | Cell survival at highest light dose at 1 µM (V79 cells [1]; [3]): 81%; photosensitizing activity, killing V79 cells (in words) (V79 cells [1]; discussion of Table 3): less active as a photosensitizer; uptake by V79 cells (in words) (V79 cells [2]): poor uptake; dependence of uptake on phthalocyanine concentration (V79 cells [2]): not linearly dependent upon the phthalocyanine concentration; Uptake into V79 cells, composite value (asterisk) (V79 cells [2]): 0.3 n Moles/10^6 cells/μM |
| CCN(CC)c1ccc2c(c1)Oc1cc(N(CC)CC)ccc1C21c2ccccc2C(=O)N1CCCC[Si](C)(C)O[Si]1(O[Si](C)(C)C(C)(C)C)n2c3c4ccccc4c2N=C2N=C(N=c4c5ccccc5c(n41)=NC1=NC(=N3)c3ccccc31)c1ccccc12 (stereo not shown) [Compound XV, (CH3)3 C(CH3)2 SiOSiPcOSi(CH3)2 (CH2)4 NCOC27 H30 N2 O] | 0.01 ± 0.01 | 0.14 ± 0.12 | < 0.05 | 0.05 | Cell survival at highest light dose at 4 µM (V79 cells [1]; Cricetulus griseus, V79, 4 μM, at 20 kJ/m^2, read-out: Maximum Effect (% survival)): 81%; induction of apoptosis (L5178Y cells): did not induce apoptosis |
| C[Si](C)(CCCO)O[Si]1(O)n2c3c4ccccc4c2N=C2N=C(N=c4c5ccccc5c(n41)=NC1=NC(=N3)c3ccccc31)c1ccccc12 (stereo not shown) [Compound XVII, HOSiPCOSi(CH3)2 (CH2)3 OH] | – | 1.7 ± 0.2 | 0.4 | 0.4 | Cell survival at highest light dose at 1 µM (V79 cells [1]; [3]): 19% |
| CN(C)CCCCCCCC[Si](C)(C)O[Si]1(O)n2c3c4ccccc4c2N=C2N=C(N=c4c5ccccc5c(n41)=NC1=NC(=N3)c3ccccc31)c1ccccc12 (stereo not shown) [Compound XXII, HOSiPcOSi(CH3)2 (CH2)8 N(CH3)2] | – | – | – | – | LD 90 (V79 cells [1]; 0.5 μM, 18 h, light dose killing 90% of cells): 10 kJ/m^2; Minimum Demonstrated Condition to induce apoptosis: C × F (L5178Y cells; 0.5 μM): 5.0 μm × kJ/m^2; Minimum Demonstrated Condition to induce apoptosis: Fluence (L5178Y cells; 0.5 μM): 10.0 kJ/m^2 |
| C[Si](C)(CCCN1CCSCC1)O[Si]1(O)n2c3c4ccccc4c2N=C2N=C(N=c4c5ccccc5c(n41)=NC1=NC(=N3)c3ccccc31)c1ccccc12 (stereo not shown) [Compound XXIV, HOSiPCOSi(CH3)2 (CH2)3 NC4 H8 S] | 0.003 ± 0.001 | 1.3 ± 0.1 | – | < 0.05 | Cell survival at highest light dose at 0.5 µM (V79 cells [1]; [4]): 100%; dependence of uptake on phthalocyanine concentration (V79 cells [2]): not linearly dependent upon the phthalocyanine concentration; Uptake into V79 cells, composite value (asterisk) (V79 cells [2]): < 0.05 n Moles/10^6 cells/μM |
| CCCCN(CCCC)CCC[Si](C)(C)O[Si]1(O)n2c3c4ccccc4c2N=C2N=C(N=c4c5ccccc5c(n41)=NC1=NC(=N3)c3ccccc31)c1ccccc12 (stereo not shown) [Compound XXV, HOSiPcOSi(CH3)2 (CH2)3 N(CH2)3 CH3)2] | 0.02 ± 0.02 | 1.5 ± 0.3 | – | < 0.05 | Cell survival at highest light dose at 0.5 µM (V79 cells [1]; Cricetulus griseus, V79, 0.5 μM, at 8 kJ/m^2, read-out: Maximum Effect (% survival)): 87%; dependence of uptake on phthalocyanine concentration (V79 cells [2]): not linearly dependent upon the phthalocyanine concentration; Uptake into V79 cells, composite value (asterisk) (V79 cells [2]): < 0.05 n Moles/10^6 cells/μM |
| C[Si](C)(CCCN=C=S)O[Si]1(O)n2c3c4ccccc4c2N=C2N=C(N=c4c5ccccc5c(n41)=NC1=NC(=N3)c3ccccc31)c1ccccc12 (stereo not shown) [Compound XXVI, HOSiPcOSi(CH3)2 (CH2)3 NCS] | – | – | – | – | Cell survival at highest light dose at 1 µM (V79 cells [1]; Cricetulus griseus, V79, read-out: Maximum Effect (% survival)): 100% |
| CCCCN1CCN(CCC[Si](C)(C)O[Si]2(O)n3c4c5ccccc5c3N=C3N=C(N=c5c6ccccc6c(n52)=NC2=NC(=N4)c4ccccc42)c2ccccc23)CC1 (stereo not shown) [Compound XXXI, HOSiPCOSi(CH3)2 (CH2)3 NC4 H8 N(CH2)3 CH3] | – | – | 0.3 | 0.3 | Cell survival at highest light dose at 0.5 µM (V79 cells [1]; [4]): 30%; Uptake into V79 cells (V79 cells [2]; 2 μM): 0.61 ± 0.1 n Moles/10^6 cells |
| chloroaluminum phthalocyanine tetrasulfonate [AlPcTS, reference compound] | – | – | – | – | Doubling Time of Initial Tumor Volume after PDT (RIF-1 tumors): 7 days |
